Test results reported in ChEMBL document CHEMBL1153341, “Synthesis of new camptothecin analogs with improved antitumor activities” (Bioorg Med Chem Lett, 2009).
Active and inactive are the calls of the source. No cut-off for these calls is given here.

Experiments:
[1] = Toxicity to iv dosed mouse administered as single bolus dose for 3 weeks; format: organism-based; details: in vivo
[2] = tested on: QG-56; test: Antiproliferative activity against human QG56 cells after 3 days; format: functional, cell-based; details: QG-56, 72 h
[3] = tested on: HCT-116; test: Antitumor activity against BCRP-negative human HCT116 cells xenografted in mouse at 40 mg/kg, iv administered as single bolus dose for 3 weeks; format: functional, organism-based; set-up: dose 40 mg/kg
[4] = tested on: NCI-H460; test: Antitumor activity against BCRP-positive human NCI-H460 cells xenografted in mouse at 40 mg/kg, iv administered as single bolus dose for 3 weeks; format: functional, organism-based; set-up: dose 40 mg/kg
[5] = tested on: HCT-116; test: Antitumor activity against BCRP-negative human HCT116 cells xenografted in mouse at 100 mg/kg, iv administered as single bolus dose for 3 weeks; format: functional, organism-based; set-up: dose 100 mg/kg
[6] = tested on: PC-6; test: Antiproliferative activity against human PC6 expressing BCRP cells after 6 days; format: functional, cell-based; details: PC-6, 144 h
[7] = tested on: PC-6; test: Antiproliferative activity against human PC6 cells carrying pRC after 6 days; format: functional, cell-based; details: PC-6, 144 h
[8] = biological target: T1, DNA topoisomerase 1 (Homo sapiens, UniProt P11387); test: Inhibition of human topoisomerase 1
T1 sequence (P11387 whole entry): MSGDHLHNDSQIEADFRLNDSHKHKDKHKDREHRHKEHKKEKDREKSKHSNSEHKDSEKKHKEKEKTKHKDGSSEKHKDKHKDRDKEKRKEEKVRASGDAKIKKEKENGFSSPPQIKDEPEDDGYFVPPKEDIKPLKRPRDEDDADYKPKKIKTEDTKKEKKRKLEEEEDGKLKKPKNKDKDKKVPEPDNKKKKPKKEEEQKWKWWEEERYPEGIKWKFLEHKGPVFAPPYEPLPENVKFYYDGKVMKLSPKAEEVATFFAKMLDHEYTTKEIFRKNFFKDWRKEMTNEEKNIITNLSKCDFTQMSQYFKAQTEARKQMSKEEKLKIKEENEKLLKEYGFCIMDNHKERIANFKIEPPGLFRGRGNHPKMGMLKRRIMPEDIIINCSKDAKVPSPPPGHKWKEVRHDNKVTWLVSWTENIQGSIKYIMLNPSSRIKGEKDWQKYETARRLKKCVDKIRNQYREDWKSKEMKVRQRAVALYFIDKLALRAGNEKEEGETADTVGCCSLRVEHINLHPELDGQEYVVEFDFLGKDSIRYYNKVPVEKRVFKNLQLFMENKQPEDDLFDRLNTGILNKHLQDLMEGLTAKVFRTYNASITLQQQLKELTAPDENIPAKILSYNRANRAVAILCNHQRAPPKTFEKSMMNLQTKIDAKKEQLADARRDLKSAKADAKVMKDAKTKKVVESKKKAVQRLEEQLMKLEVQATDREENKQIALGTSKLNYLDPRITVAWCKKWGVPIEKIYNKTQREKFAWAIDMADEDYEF

[9] = tested on: NCI-H460; test: Antitumor activity against BCRP-positive human NCI-H460 cells xenografted in mouse at 100 mg/kg, iv administered as single bolus dose for 3 weeks; format: functional, organism-based; set-up: dose 100 mg/kg
[10] = tested on: HCT-116; test: Antiproliferative activity against human HCT116 cells after 3 days; format: functional, cell-based; details: HCT-116, 72 h
[11] = tested on: PC-6; test: Ratio of IC50 for human PC6 expressing BCRP cells to IC50 for human PC6 cells carrying pRC; format: functional
[12] = tested on: NCI-H460; test: Antiproliferative activity against human NCI-H460 cells after 3 days; format: functional, cell-based; details: NCI-H460, 72 h

SMILES | IC50 [2] | IC50 [10] | IC50 [12] | further results
CCc1c2c(nc3ccc(OC(=O)N4CCC(N5CCCCC5)CC4)cc13)-c1cc3c(c(=O)n1C2)COC(=O)[C@]3(O)CC [IRINOTECAN] |  |  |  | MTD at 504 h [1]: 100 mg/kg
CCCCCN1C=Nc2cccc3nc4c(c1c23)Cn1c-4cc2c(c1=O)COC(=O)[C@]2(O)CC | 2.3 nM | 0.36 nM | 2.3 nM | Activity [3]: Active; Activity [4]: Active; Activity [5]: Active; IC50 [6]: 0.35 nM; IC50 [7]: 0.18 nM; IC50 [8]: 2300 nM; MTD at 504 h [1]: 40 mg/kg; Activity [9]: Active; Ratio IC50 [11]: 2
CCCCCN1C(C)=Nc2cccc3nc4c(c1c23)Cn1c-4cc2c(c1=O)COC(=O)[C@]2(O)CC | 1.8 nM | 0.12 nM | 0.66 nM | 
CCCCN1C=Nc2cccc3nc4c(c1c23)Cn1c-4cc2c(c1=O)COC(=O)[C@]2(O)CC | 2.3 nM | 0.52 nM | 1.6 nM | 
CC[C@@]1(O)C(=O)OCc2c1cc1n(c2=O)Cc2c-1nc1cccc3c1c2N(CCC(C)C)C(=S)N3 | 0.16 nM | 0.02 nM | 0.08 nM | 
CCCCN1C(=O)Nc2cccc3nc4c(c1c23)Cn1c-4cc2c(c1=O)COC(=O)[C@]2(O)CC | 1.2 nM | 0.4 nM | 0.99 nM | 
CC[C@@]1(O)C(=O)OCc2c1cc1n(c2=O)Cc2c-1nc1cccc3c1c2N(CCc1ccccc1)C(=O)N3 | 1.2 nM | 0.25 nM | 0.38 nM | 
CC[C@@]1(O)C(=O)OCc2c1cc1n(c2=O)Cc2c-1nc1cccc3c1c2N(CCc1ccccc1)C=N3 | 2.1 nM | 0.36 nM | 0.91 nM | 
CCc1c2c(nc3ccc(O)cc13)-c1cc3c(c(=O)n1C2)COC(=O)[C@]3(O)CC [7-ETHYL-10-HYDROXYCAMPTOTHECIN] | 2.8 nM | 0.55 nM | 3.3 nM | IC50 [6]: 5.1 nM; IC50 [7]: 0.43 nM; IC50 [8]: 5500 nM; Ratio IC50 [11]: 12
CC[C@@]1(O)C(=O)OCc2c1cc1n(c2=O)Cc2c-1nc1cccc3c1c2N(CCN1CCOCC1)C=N3 | 9.4 nM | 2.2 nM | 7.2 nM | 
CC[C@@]1(O)C(=O)OCc2c1cc1n(c2=O)Cc2c-1nc1cccc3c1c2N(CCN1CCOCC1)C(=O)N3 | 18 nM | 3.6 nM | 26 nM | 
CC[C@@]1(O)C(=O)OCc2c1cc1n(c2=O)Cc2c-1nc1cccc3c1c2N(CCC(C)C)C=N3 | 0.25 nM | < 0.04 nM | 0.11 nM | 
CCCCCN1C(=O)Nc2cccc3nc4c(c1c23)Cn1c-4cc2c(c1=O)COC(=O)[C@]2(O)CC | 8.5 nM | 0.85 nM | 8.2 nM | 
CC[C@@]1(O)C(=O)OCc2c1cc1n(c2=O)Cc2c-1nc1cccc3c1c2N(CCC(C)C)C(CO)=N3 | 1.8 nM | 0.44 nM | 0.52 nM | 
CC[C@@]1(O)C(=O)OCc2c1cc1n(c2=O)Cc2c-1nc1cccc3c1c2N(CCC(C)C)C(=O)N3 | 0.58 nM | 0.05 nM | 0.72 nM | 
